Data: ChEMBL document CHEMBL1145007 (J Med Chem, 2003)
pKi: −log10 of the molar value.

Legend:
Acetylcholinesterase [1] = target: T1, Acetylcholinesterase (Bos taurus, UniProt P23795)
T1 sequence (P23795 whole entry): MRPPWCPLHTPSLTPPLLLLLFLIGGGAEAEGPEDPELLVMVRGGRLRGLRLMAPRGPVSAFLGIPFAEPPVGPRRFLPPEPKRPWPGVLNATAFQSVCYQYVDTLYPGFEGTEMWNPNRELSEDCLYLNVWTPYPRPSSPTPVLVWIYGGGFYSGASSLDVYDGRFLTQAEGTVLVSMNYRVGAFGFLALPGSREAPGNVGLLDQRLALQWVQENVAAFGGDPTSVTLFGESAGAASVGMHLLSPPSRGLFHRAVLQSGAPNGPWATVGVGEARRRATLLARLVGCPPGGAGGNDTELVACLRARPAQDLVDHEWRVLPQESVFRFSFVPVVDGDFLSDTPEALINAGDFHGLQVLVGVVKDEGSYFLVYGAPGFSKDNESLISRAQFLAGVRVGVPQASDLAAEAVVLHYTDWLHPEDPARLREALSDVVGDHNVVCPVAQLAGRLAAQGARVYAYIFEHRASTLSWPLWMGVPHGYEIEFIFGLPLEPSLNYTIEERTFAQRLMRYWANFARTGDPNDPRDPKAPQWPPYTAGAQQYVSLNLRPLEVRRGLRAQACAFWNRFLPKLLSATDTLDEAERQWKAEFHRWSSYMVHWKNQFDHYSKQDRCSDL
Description: Inhibition of fetal Bovine serum AChE

Butyrylcholinesterase = Butyrylcholinesterase (Equus caballus, UniProt Q9N1N9)
Sequence of Butyrylcholinesterase (Q9N1N9 whole entry): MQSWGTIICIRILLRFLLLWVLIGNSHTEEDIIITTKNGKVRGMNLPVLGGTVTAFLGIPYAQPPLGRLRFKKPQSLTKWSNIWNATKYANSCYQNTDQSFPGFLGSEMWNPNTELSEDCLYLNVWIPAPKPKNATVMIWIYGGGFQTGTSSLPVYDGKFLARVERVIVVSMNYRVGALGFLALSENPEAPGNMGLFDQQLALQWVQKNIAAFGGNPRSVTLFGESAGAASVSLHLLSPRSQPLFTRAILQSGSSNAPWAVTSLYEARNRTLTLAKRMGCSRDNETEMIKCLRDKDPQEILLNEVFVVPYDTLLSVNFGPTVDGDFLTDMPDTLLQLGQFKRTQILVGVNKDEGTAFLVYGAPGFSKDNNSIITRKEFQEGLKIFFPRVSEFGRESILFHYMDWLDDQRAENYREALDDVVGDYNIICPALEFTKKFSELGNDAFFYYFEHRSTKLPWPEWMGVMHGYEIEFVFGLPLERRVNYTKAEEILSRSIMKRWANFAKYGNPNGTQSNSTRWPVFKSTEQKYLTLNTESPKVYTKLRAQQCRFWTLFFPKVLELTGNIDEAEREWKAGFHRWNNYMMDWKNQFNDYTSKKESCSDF
Description: Inhibition of Equine Butyrylcholinesterase

Acetylcholinesterase [2] = target: Acetylcholinesterase (Homo sapiens, UniProt P22303); experiment: Inhibitory activity against human AChE
Sequence of Acetylcholinesterase (Homo sapiens, UniProt P22303) (P22303 whole entry): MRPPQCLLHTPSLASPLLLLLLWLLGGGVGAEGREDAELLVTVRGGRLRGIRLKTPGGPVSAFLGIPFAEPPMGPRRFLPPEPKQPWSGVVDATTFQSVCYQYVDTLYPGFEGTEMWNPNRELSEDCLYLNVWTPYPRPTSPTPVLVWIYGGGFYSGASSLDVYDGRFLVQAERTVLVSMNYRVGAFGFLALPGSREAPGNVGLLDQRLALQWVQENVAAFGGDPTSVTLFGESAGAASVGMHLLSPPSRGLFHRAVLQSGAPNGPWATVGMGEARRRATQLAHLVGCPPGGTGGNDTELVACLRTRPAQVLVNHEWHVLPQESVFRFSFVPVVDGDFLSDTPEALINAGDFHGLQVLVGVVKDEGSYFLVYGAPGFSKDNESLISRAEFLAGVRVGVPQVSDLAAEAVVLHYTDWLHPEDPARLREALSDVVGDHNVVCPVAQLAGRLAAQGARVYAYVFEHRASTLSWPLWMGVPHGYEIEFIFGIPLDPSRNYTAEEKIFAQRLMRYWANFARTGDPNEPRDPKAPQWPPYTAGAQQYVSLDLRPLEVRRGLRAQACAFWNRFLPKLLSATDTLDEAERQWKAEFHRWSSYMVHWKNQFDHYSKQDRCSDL

**Q.** How did the pKi (Acetylcholinesterase [1]) turn out when c1ccc2c(NCCCCCCCCSc3c4c(nc5ccccc35)CCCC4)c3c(nc2c1)CCCC3 was run?
**A.** 6.60

**Q.** And the pKi (Butyrylcholinesterase)?
**A.** 9.40

**Q.** How did the pKi (Acetylcholinesterase [1]) turn out when c1ccc2c(NCCCCCSc3c4c(nc5ccccc35)CCCC4)c3c(nc2c1)CCCC3 was run?
**A.** 6.68

**Q.** What about the pKi (Butyrylcholinesterase) of the same compound?
**A.** 8.00

**Q.** What does the source list for CN(CCCNc1c2c(nc3ccccc13)CCCC2)CCCNc1c2c(nc3cc(Cl)cc(Cl)c13)CCCC2?
**A.** pKi (Acetylcholinesterase [1]): 8.43; pKi (Butyrylcholinesterase): 7.96

**Q.** With CC(=O)N(CCCNc1c2c(nc3ccccc13)CCCC2)CCCNc1c2c(nc3ccccc13)CCCC2 as the compound, how does the pKi (Acetylcholinesterase [1]) read?
**A.** 5.82

**Q.** And the pKi (Butyrylcholinesterase)?
**A.** 8.70

**Q.** With CN(CCCNc1c2c(nc3ccccc13)CCCC2)CCCNc1c2c(nc3ccccc13)CCCC2 as the compound, how does the pKi (Acetylcholinesterase [1]) read?
**A.** 10.22

**Q.** And the pKi (Butyrylcholinesterase)?
**A.** 8.22

**Q.** CCC1=CC2Cc3nc4cc(Cl)ccc4c(N)c3[C@@H](C1)C2 [HUPRINE X] was tested. Which pKi (Acetylcholinesterase [2]) did it give?
**A.** 10.59
